Data taken from patent US8530404B2, “Compounds and methods for treatment of cancer” (FibroGen, Inc., priority 2005, dated 2013).

How the values were obtained:
OVCAR3 ovarian tumors = test: Subcutaneous OVCAR3 ovarian tumor xenograft in SCID mice (Example 7); type: in vivo, mouse; conditions: 60 mg/kg; study end (day 29); FIG. 2
Description: The experiment was conducted essentially as described above in Example 3, except that the tumors of GFP-transfected H460 cells were replaced with OVCAR3 ovarian tumors. […] FIG. 2 is a Kruskal-Wallis box plot. The central bar within each box indicates the median value for the group, the limits of the various boxes and whiskers indicate group quartiles within the total distribution of values determined in this study.

[1] = Complete blood counts and reticulocyte analysis in H-460 xenograft mice (Example 1); type: in vivo, mouse; conditions: study end
Description: Sizes of the primary tumors were measured through the skin with calipers once per week. Tumor volumes were calculated by the formula V═(W^2*L)/2. Body weight of the mice in each group was also measured once per week during the experimental period. All animals were sacrificed following thirty-two days of treatment. Primary tumors were excised and weighed on an electronic balance. Blood samples were taken during terminal sacrifice and placed in microhematocrit tubes containing EDTA. Complete Blood Counts (CBC) and reticulocyte analysis were performed with the Cell Dyn 3700 analyzer (Abbott Diagnostics), as described by the manufacturer.

NDRG1 gene expression = test: In vivo NDRG1 gene expression in Swiss Webster mice (quantitative PCR); conditions: Mus musculus, iv, 4 h, read-out: fold change in NDRG1 mRNA level
Description: The effects of various compounds of the present invention on the expression of genes associated with tumor growth and progression (e.g., expression of genes associated with anti-proliferative effects) were examined in vivo as follows. In these studies, male Swiss Webster mice (25 g) were administered a single intravenous (i.v.) dose of various compounds (60 mg/kg) of the present invention via the tail vein. Four hours after administration of compound, the kidneys and liver were removed and preserved in RNAlater (Ambion). RNA isolation and cDNA synthesis was carried out as follows. Murine kidney tissue was added to TRIzol (Invitrogen) and homogenized using a 5-mm stainless steel bead for 4 minutes at 25 Hz in a Mixer Mill 300 (Qiagen). Homogenates were extracted with chloroform according to the manufacturer's instructions and aqueous supernatants were isolated. The aqueous supernatants were combined with equal volumes of 70% ethanol and then loaded onto RNeasy Mini spin columns (Qiagen). RNA was isolated according to the manufacturer's instructions.
Synthesis of cDNA from the isolated total RNA was carried out using Omniscript reverse transcriptase (Qiagen) and random primers according to the manufacturer's instructions. Measurement of gene expression levels in compound-treated animals and in vehicle-treated control animals was performed by quantitative PCR using TaqMan Universal PCR Master Mix (Applied Biosystems) and TaqMan Assay-on-Demand assays (Applied Biosystems) in a Prism 7000 system instrument (Applied Biosystems), according to manufacturer's instructions. The assays used were as follows: 18S ribosomal RNA, Hs99999901_s1; BNIP3, Mm00833810_g1; BNIP3L, Mm00786306_s1; NDRG1, Mm00440447_m1. Each PCR amplification reaction included a standard curve and a water blank. Data for gene expression levels for BNIP3, BNIP3L, and NDRG1 were normalized to that of 18S ribosomal RNA within each sample. Data is presented as fold change in specific mRNA levels relative to that of non-treated control animals.

BNIP3 gene expression = BNIP3 gene expression in MCF7 cells; type: cell-based; conditions: Homo sapiens, MCF7, read-out: fold-increase in BNIP3 mRNA expression
Description: To identify compounds useful in the methods of the present invention, the following studies were performed. The effect of compounds of the present invention on expression of various genes associated with anti-tumor activity (e.g., genes having anti-proliferative activity, genes having pro-apoptotic activity, genes having anti-tumor activity, etc.). In these experiments, the effect of compounds on BNIP3, BNIP3L, NDRG1, CDKN1C, and REDD1/RTP801 gene expression in various types of cultured tumor cells line was examined, including Hep3B cells (human hepatocellular carcinoma), Kelly neuroblastoma cells, and MCF7 cells (human breast cancer)
The effects of various compounds of the present invention on the expression of genes associated with tumor growth and progression were examined in MCF7 breast cancer cells as follows. In some experiments, MCF7 (ATCC) cells were plated in 96-well tissue culture dishes (approximately 20,000 cells per well) and cultured in DMEM media supplemented with 10% serum. The following day, the cells were washed and the media was replaced with DMEM containing 0.5% FBS. Various compounds of the present invention were added to the cultured cells to a final concentration of 20 μM, and the cells cultured for an additional 20-24 hours. DMSO (0.5%) was added to control cell cultures. RNA was isolated as described above. Changes in gene expression levels are presented as fold change compared to that of control (0.5% DMSO-treated) cultures.
In other experiments, MCF7 cells were plated in 96-well tissue culture dishes as described above. After 24 hours, the cells were washed and the media was replaced with DMEM containing 0.5% FBS. Various compounds of the present invention were added to the cultured cells to a final concentration of 20 μM. DMSO (0.5%) was added to control cell cultures. After 24 hours, changes in gene expression of BNIP3 and 18S RNA were determined directly using one-step quantitative multiplex RT-PCR reactions according to the manufacturer's instructions (QuantiTect Multiplex RT-PCR Kit, Qiagen, catalog no. 204643). Changes in gene expression levels are presented as fold change compared to that of control (0.5% DMSO-treated) cultures.

## O=C(O)CNC(=O)c1nc(Cl)c2ccccc2c1O [Compound A, [(1-Chloro-4-hydroxy-isoquinoline-3-carbonyl)-amino]-acetic acid]
OVCAR3 ovarian tumors
  reduction of median tumor volume compared to vehicle-treated control: 26%

## C[C@H](NC(=O)c1ncc2cc(Oc3ccccc3)ccc2c1O)C(=O)O [Compound B, (S)-2-[(4-Hydroxy-7-phenoxy-isoquinoline-3-carbonyl)-amino]-propionic acid]
[1]; 6 mg/kg PO
  Abs Retic (reticulocyte count): 653
  Baso %: 6.35%
  Baso (basophils): 1840 µL⁻¹
  EOS %: 0.49%
  Eos (eosinophil count): 80 µL⁻¹
  HCT (hematocrit): 37.7%
  HGB (hemoglobin): 12.7 g/dL
  IRF (immature RET fraction): 0.64
  Lymph %: 18.3%
  Lymph (lymphocytes): 4700 µL⁻¹
  MCH (mean corpuscular hemoglobin): 14.6 pg
  MCHC (MCH concentration): 33.8 g/dL
  MCV (mean corpuscular volume): 43.2 fL
  Mono %: 7.61%
  Mono (monocytes): 2370 µL⁻¹
  Neut %: 67.5%
  Neut (neutrophils): 18400 µL⁻¹
  PLAT (platelets): 1.536e+06 µL⁻¹
  RBC (red blood cells): 8.71e+06 µL⁻¹
  RDW (RBC distribution width): 21.4%
  RET (reticulocytes): 7.5%
  WBC (white blood cells): 27300 µL⁻¹
[1]; 20 mg/kg PO
  Abs Retic (reticulocyte count): 552
  Baso %: 4.52%
  Baso (basophils): 780 µL⁻¹
  EOS %: 0.44%
  Eos (eosinophil count): 70 µL⁻¹
  HCT (hematocrit): 37.7%
  HGB (hemoglobin): 12.7 g/dL
  IRF (immature RET fraction): 0.56
  Lymph %: 14.6%
  Lymph (lymphocytes): 2700 µL⁻¹
  MCH (mean corpuscular hemoglobin): 14.5 pg
  MCHC (MCH concentration): 33.7 g/dL
  MCV (mean corpuscular volume): 43.0 fL
  Mono %: 4.88%
  Mono (monocytes): 850 µL⁻¹
  Neut %: 75.6%
  Neut (neutrophils): 16500 µL⁻¹
  PLAT (platelets): 1.767e+06 µL⁻¹
  RBC (red blood cells): 8.78e+06 µL⁻¹
  RDW (RBC distribution width): 21.7%
  RET (reticulocytes): 6.3%
  WBC (white blood cells): 20800 µL⁻¹
NDRG1 gene expression
  fold induction at 60 mg/kg: 0.9
BNIP3 gene expression
  fold induction at 20 µM: 4.5

## COc1ccc(Oc2ccc3c(O)c(C(=O)NCC(=O)O)ncc3c2)cc1 [Compound C, {[4-Hydroxy-7-(4-methoxy-phenoxy)-isoquinoline-3-carbonyl]-amino}-acetic acid]
[1]; 20 mg/kg PO
  Abs Retic (reticulocyte count): 457
  Baso %: 1.47%
  Baso (basophils): 150 µL⁻¹
  EOS %: 0.47%
  Eos (eosinophil count): 40 µL⁻¹
  HCT (hematocrit): 41.1%
  HGB (hemoglobin): 14.0 g/dL
  IRF (immature RET fraction): 0.56
  Lymph %: 25.2%
  Lymph (lymphocytes): 3000 µL⁻¹
  MCH (mean corpuscular hemoglobin): 14.9 pg
  MCHC (MCH concentration): 34.1 g/dL
  MCV (mean corpuscular volume): 43.8 fL
  Mono %: 2.67%
  Mono (monocytes): 320 µL⁻¹
  Neut %: 70.2%
  Neut (neutrophils): 11400 µL⁻¹
  PLAT (platelets): 1.707e+06 µL⁻¹
  RBC (red blood cells): 9.36e+06 µL⁻¹
  RDW (RBC distribution width): 22.3%
  RET (reticulocytes): 4.9%
  WBC (white blood cells): 14900 µL⁻¹
NDRG1 gene expression
  fold induction at 60 mg/kg: 1
BNIP3 gene expression
  fold induction at 20 µM: 5

## Cc1nc(C(=O)NCC(=O)O)c(O)c2ccc(Oc3ccccc3)cc12 [Compound D, [(4-Hydroxy-1-methyl-7-phenoxy-isoquinoline-3-carbonyl)-amino]-acetic acid]
NDRG1 gene expression
  fold induction at 60 mg/kg: 3.6
OVCAR3 ovarian tumors
  reduction of median tumor volume compared to vehicle-treated control: 5%

## O=C(O)CNC(=O)c1ncc2cc(Oc3ccc(F)cc3)ccc2c1O [Compound E, {[7-(4-fluoro-phenoxy)-4-hydroxy-isoquinoline-3-carbonyl]-amino}-acetic acid]
NDRG1 gene expression
  fold induction at 60 mg/kg: 1.8
BNIP3 gene expression
  fold induction at 20 µM: 5.3
